Source: publication PMC11277489, “Novel Piperazine Derivatives of Vindoline as Anticancer Agents” (International Journal of Molecular Sciences, 2024)

The compounds below were run on SK-MEL-5 (assay: NCI60 one-dose screen (10 μM), Melanoma). Settings: Homo sapiens; 10 μM; SK-MEL-5, Melanoma; read-out: Growth percent rate.
Type: cell-based, human

SMILES | activity at 10 µM [%]
CCC12C=CCN3CCC4(c5ccc(OC)cc5N(C)C4C(O)(C(=O)OC)C1OC(=O)CCC(=O)O)C32 (centres unmarked) [Compound 15, 17-(O-3-carboxypropanoyl)vindoline] | 96.8
CCC12C=CCN3CCC4(c5ccc(OC)cc5N(C)C4C(O)(C(=O)OC)C1OC(=O)CCCN1CCN(C)CC1)C32 (centres unmarked) [Compound 3] | 74.5
CC[C@]12C=CCN3CC[C@@]4(c5ccc(OC)cc5N(C)[C@H]4[C@@](O)(C(=O)OC)[C@@H]1OC(=O)CCCN1CCN(C(=O)c4ccco4)CC1)[C@@H]32 [Compound 26] | 75.6

Each compound was assayed on SR (assay: NCI60 one-dose screen (10 μM), Leukemia). Settings: Homo sapiens, 10 μM, Leukemia, read-out: Growth percent rate.
Type: cell-based

SMILES | activity at 10 µM [%]
CC[C@]12C=CCN3CC[C@@]4(c5ccc(OC)cc5N(C)[C@H]4[C@@](O)(C(=O)OC)[C@@H]1OC(=O)CCCN1CCN(C(=O)c4ccco4)CC1)[C@@H]32 [Compound 26] | 75.4

Each compound was assayed on M14 (assay: NCI60 one-dose screen (10 μM), Melanoma). Settings: Homo sapiens; 10 μM; M14, Melanoma; read-out: Growth percent rate.
Type: cell-based

SMILES | activity at 10 µM [%]
CCC12C=CCN3CCC4(c5ccc(OC)cc5N(C)C4C(O)(C(=O)OC)C1OC(=O)CCC(=O)O)C32 (centres unmarked) [Compound 15, 17-(O-3-carboxypropanoyl)vindoline] | 96.5
CCC12C=CCN3CCC4(c5ccc(OC)cc5N(C)C4C(O)(C(=O)OC)C1OC(=O)CCCN1CCN(C)CC1)C32 (centres unmarked) [Compound 3] | 103
CC[C@]12C=CCN3CC[C@@]4(c5ccc(OC)cc5N(C)[C@H]4[C@@](O)(C(=O)OC)[C@@H]1OC(=O)CCCN1CCN(C(=O)c4ccco4)CC1)[C@@H]32 [Compound 26] | 101

Each compound was assayed on NCI-H226 (assay: NCI60 one-dose screen (10 μM), Non-small Cell Lung Cancer). Settings: Homo sapiens; 10 μM; NCI-H226, Non-small Cell Lung Cancer; read-out: Growth percent rate.
Type: cell-based

SMILES | activity at 10 µM [%]
CCC12C=CCN3CCC4(c5ccc(OC)cc5N(C)C4C(O)(C(=O)OC)C1OC(=O)CCC(=O)O)C32 (centres unmarked) [Compound 15, 17-(O-3-carboxypropanoyl)vindoline] | 66.6
CC[C@]12C=CCN3CC[C@@]4(c5ccc(OC)cc5N(C)[C@H]4[C@@](O)(C(=O)OC)[C@@H]1OC(=O)CCCN1CCN(C(=O)c4ccco4)CC1)[C@@H]32 [Compound 26] | 94.9

The compounds below were run on PC-3 (assay: NCI60 one-dose screen (10 μM), Prostate Cancer). Settings: Homo sapiens; 10 μM; PC-3, Prostate Cancer; read-out: Growth percent rate.
Type: cell-based

SMILES | activity at 10 µM [%]
CCC12C=CCN3CCC4(c5ccc(OC)cc5N(C)C4C(O)(C(=O)OC)C1OC(=O)CCC(=O)O)C32 (centres unmarked) [Compound 15, 17-(O-3-carboxypropanoyl)vindoline] | 87.7
CCC12C=CCN3CCC4(c5ccc(OC)cc5N(C)C4C(O)(C(=O)OC)C1OC(=O)CCCN1CCN(C)CC1)C32 (centres unmarked) [Compound 3] | 92.9
CC[C@]12C=CCN3CC[C@@]4(c5ccc(OC)cc5N(C)[C@H]4[C@@](O)(C(=O)OC)[C@@H]1OC(=O)CCCN1CCN(C(=O)c4ccco4)CC1)[C@@H]32 [Compound 26] | 80.5

The compounds below were run on SK-OV-3 (assay: NCI60 one-dose screen (10 μM), Ovarian Cancer). Settings: Homo sapiens; 10 μM; SK-OV-3, Ovarian Cancer; read-out: Growth percent rate.
Type: cell-based

SMILES | activity at 10 µM [%]
CCC12C=CCN3CCC4(c5ccc(OC)cc5N(C)C4C(O)(C(=O)OC)C1OC(=O)CCC(=O)O)C32 (centres unmarked) [Compound 15, 17-(O-3-carboxypropanoyl)vindoline] | 92.3
CCC12C=CCN3CCC4(c5ccc(OC)cc5N(C)C4C(O)(C(=O)OC)C1OC(=O)CCCN1CCN(C)CC1)C32 (centres unmarked) [Compound 3] | 93.3
CC[C@]12C=CCN3CC[C@@]4(c5ccc(OC)cc5N(C)[C@H]4[C@@](O)(C(=O)OC)[C@@H]1OC(=O)CCCN1CCN(C(=O)c4ccco4)CC1)[C@@H]32 [Compound 26] | 108

What follows are compounds tested on MDA-MB-468 (assay: NCI60 one-dose screen (10 μM), Breast Cancer). Settings: Homo sapiens; 10 μM; MDA-MB-468, Breast Cancer; read-out: Growth percent rate.
Type: cell-based

SMILES | activity at 10 µM [%]
CCC12C=CCN3CCC4(c5ccc(OC)cc5N(C)C4C(O)(C(=O)OC)C1OC(=O)CCC(=O)O)C32 (centres unmarked) [Compound 15, 17-(O-3-carboxypropanoyl)vindoline] | 98.7
CCC12C=CCN3CCC4(c5ccc(OC)cc5N(C)C4C(O)(C(=O)OC)C1OC(=O)CCCN1CCN(C)CC1)C32 (centres unmarked) [Compound 3] | 70.5

These compounds were tested on HOP-92 (assay: NCI60 one-dose screen (10 μM), Non-small Cell Lung Cancer). Settings: Homo sapiens; 10 μM; HOP-92, Non-small Cell Lung Cancer; read-out: Growth percent rate.
Type: cell-based

SMILES | activity at 10 µM [%]
CCC12C=CCN3CCC4(c5ccc(OC)cc5N(C)C4C(O)(C(=O)OC)C1OC(=O)CCC(=O)O)C32 (centres unmarked) [Compound 15, 17-(O-3-carboxypropanoyl)vindoline] | 98.8
CCC12C=CCN3CCC4(c5ccc(OC)cc5N(C)C4C(O)(C(=O)OC)C1OC(=O)CCCN1CCN(C)CC1)C32 (centres unmarked) [Compound 3] | 80.9

Each compound was assayed on MDA-MB-231/ATCC (assay: NCI60 one-dose screen (10 μM), Breast Cancer). Settings: Homo sapiens; 10 μM; MDA-MB-231/ATCC, Breast Cancer; read-out: Growth percent rate.
Type: cell-based, human

SMILES | activity at 10 µM [%]
CCC12C=CCN3CCC4(c5ccc(OC)cc5N(C)C4C(O)(C(=O)OC)C1OC(=O)CCCN1CCN(C)CC1)C32 (centres unmarked) [Compound 3] | 80.4
CC[C@]12C=CCN3CC[C@@]4(c5ccc(OC)cc5N(C)[C@H]4[C@@](O)(C(=O)OC)[C@@H]1OC(=O)CCCN1CCN(C(=O)c4ccco4)CC1)[C@@H]32 [Compound 26] | 102

Each compound was assayed on OVCAR-5 (assay: NCI60 one-dose screen (10 μM), Ovarian Cancer). Settings: Homo sapiens; 10 μM; OVCAR-5, Ovarian Cancer; read-out: Growth percent rate.
Type: cell-based

SMILES | activity at 10 µM [%]
CCC12C=CCN3CCC4(c5ccc(OC)cc5N(C)C4C(O)(C(=O)OC)C1OC(=O)CCCN1CCN(C)CC1)C32 (centres unmarked) [Compound 3] | 96.4
CC[C@]12C=CCN3CC[C@@]4(c5ccc(OC)cc5N(C)[C@H]4[C@@](O)(C(=O)OC)[C@@H]1OC(=O)CCCN1CCN(C(=O)c4ccco4)CC1)[C@@H]32 [Compound 26] | 112

Each compound was assayed on BT-549 (assay: NCI60 one-dose screen (10 μM), Breast Cancer). Settings: Homo sapiens; 10 μM; BT-549, Breast Cancer; read-out: Growth percent rate.
Type: cell-based

SMILES | activity at 10 µM [%]
CCC12C=CCN3CCC4(c5ccc(OC)cc5N(C)C4C(O)(C(=O)OC)C1OC(=O)CCC(=O)O)C32 (centres unmarked) [Compound 15, 17-(O-3-carboxypropanoyl)vindoline] | 80.5
CC[C@]12C=CCN3CC[C@@]4(c5ccc(OC)cc5N(C)[C@H]4[C@@](O)(C(=O)OC)[C@@H]1OC(=O)CCCN1CCN(C(=O)c4ccco4)CC1)[C@@H]32 [Compound 26] | 96.8

What follows are compounds tested on HCC-2998 (assay: NCI60 one-dose screen (10 μM), Colon Cancer). Settings: Homo sapiens; 10 μM; HCC-2998, Colon Cancer; read-out: Growth percent rate.
Type: cell-based

SMILES | activity at 10 µM [%]
CCC12C=CCN3CCC4(c5ccc(OC)cc5N(C)C4C(O)(C(=O)OC)C1OC(=O)CCC(=O)O)C32 (centres unmarked) [Compound 15, 17-(O-3-carboxypropanoyl)vindoline] | 71
CCC12C=CCN3CCC4(c5ccc(OC)cc5N(C)C4C(O)(C(=O)OC)C1OC(=O)CCCN1CCN(C)CC1)C32 (centres unmarked) [Compound 3] | 92.4
CC[C@]12C=CCN3CC[C@@]4(c5ccc(OC)cc5N(C)[C@H]4[C@@](O)(C(=O)OC)[C@@H]1OC(=O)CCCN1CCN(C(=O)c4ccco4)CC1)[C@@H]32 [Compound 26] | 106

What follows are compounds tested on HT29 (assay: NCI60 one-dose screen (10 μM), Colon Cancer). Settings: Homo sapiens, HT-29; 10 μM; HT29, Colon Cancer; read-out: Growth percent rate.
Type: cell-based

SMILES | activity at 10 µM [%]
CCC12C=CCN3CCC4(c5ccc(OC)cc5N(C)C4C(O)(C(=O)OC)C1OC(=O)CCC(=O)O)C32 (centres unmarked) [Compound 15, 17-(O-3-carboxypropanoyl)vindoline] | 89.9
CCC12C=CCN3CCC4(c5ccc(OC)cc5N(C)C4C(O)(C(=O)OC)C1OC(=O)CCCN1CCN(C)CC1)C32 (centres unmarked) [Compound 3] | 98.8
CC[C@]12C=CCN3CC[C@@]4(c5ccc(OC)cc5N(C)[C@H]4[C@@](O)(C(=O)OC)[C@@H]1OC(=O)CCCN1CCN(C(=O)c4ccco4)CC1)[C@@H]32 [Compound 26] | 103

The compounds below were run on UO-31 (assay: NCI60 one-dose screen (10 μM), Renal Cancer). Settings: Homo sapiens; 10 μM; UO-31, Renal Cancer; read-out: Growth percent rate.
Type: cell-based

SMILES | activity at 10 µM [%]
CCC12C=CCN3CCC4(c5ccc(OC)cc5N(C)C4C(O)(C(=O)OC)C1OC(=O)CCCN1CCN(C)CC1)C32 (centres unmarked) [Compound 3] | 75.8
CC[C@]12C=CCN3CC[C@@]4(c5ccc(OC)cc5N(C)[C@H]4[C@@](O)(C(=O)OC)[C@@H]1OC(=O)CCCN1CCN(C(=O)c4ccco4)CC1)[C@@H]32 [Compound 26] | 80.6

The compounds below were run on NCI/ADR-RES (assay: NCI60 one-dose screen (10 μM), Ovarian Cancer). Settings: Homo sapiens, 10 μM, Ovarian Cancer, read-out: Growth percent rate.
Type: cell-based

SMILES | activity at 10 µM [%]
CCC12C=CCN3CCC4(c5ccc(OC)cc5N(C)C4C(O)(C(=O)OC)C1OC(=O)CCC(=O)O)C32 (centres unmarked) [Compound 15, 17-(O-3-carboxypropanoyl)vindoline] | 94.6
CCC12C=CCN3CCC4(c5ccc(OC)cc5N(C)C4C(O)(C(=O)OC)C1OC(=O)CCCN1CCN(C)CC1)C32 (centres unmarked) [Compound 3] | 94.7
CC[C@]12C=CCN3CC[C@@]4(c5ccc(OC)cc5N(C)[C@H]4[C@@](O)(C(=O)OC)[C@@H]1OC(=O)CCCN1CCN(C(=O)c4ccco4)CC1)[C@@H]32 [Compound 26] | 91.8

What follows are compounds tested on T-47D (assay: NCI60 one-dose screen (10 μM), Breast Cancer). Settings: Homo sapiens, T47D; 10 μM; T-47D, Breast Cancer; read-out: Growth percent rate.
Type: cell-based

SMILES | activity at 10 µM [%]
CCC12C=CCN3CCC4(c5ccc(OC)cc5N(C)C4C(O)(C(=O)OC)C1OC(=O)CCCN1CCN(C)CC1)C32 (centres unmarked) [Compound 3] | 90.9
CC[C@]12C=CCN3CC[C@@]4(c5ccc(OC)cc5N(C)[C@H]4[C@@](O)(C(=O)OC)[C@@H]1OC(=O)CCCN1CCN(C(=O)c4ccco4)CC1)[C@@H]32 [Compound 26] | 82.2

The compounds below were run on UACC-62 (assay: NCI60 one-dose screen (10 μM), Melanoma). Settings: Homo sapiens; 10 μM; UACC-62, Melanoma; read-out: Growth percent rate.
Type: cell-based

SMILES | activity at 10 µM [%]
CCC12C=CCN3CCC4(c5ccc(OC)cc5N(C)C4C(O)(C(=O)OC)C1OC(=O)CCC(=O)O)C32 (centres unmarked) [Compound 15, 17-(O-3-carboxypropanoyl)vindoline] | 92.4
CCC12C=CCN3CCC4(c5ccc(OC)cc5N(C)C4C(O)(C(=O)OC)C1OC(=O)CCCN1CCN(C)CC1)C32 (centres unmarked) [Compound 3] | 83.2
CC[C@]12C=CCN3CC[C@@]4(c5ccc(OC)cc5N(C)[C@H]4[C@@](O)(C(=O)OC)[C@@H]1OC(=O)CCCN1CCN(C(=O)c4ccco4)CC1)[C@@H]32 [Compound 26] | 86.4

What follows are compounds tested on SNB-19 (assay: NCI60 one-dose screen (10 μM), CNS Cancer). Settings: Homo sapiens; 10 μM; SNB-19, CNS Cancer; read-out: Growth percent rate.
Type: cell-based

SMILES | activity at 10 µM [%]
CCC12C=CCN3CCC4(c5ccc(OC)cc5N(C)C4C(O)(C(=O)OC)C1OC(=O)CCC(=O)O)C32 (centres unmarked) [Compound 15, 17-(O-3-carboxypropanoyl)vindoline] | 94.9
CCC12C=CCN3CCC4(c5ccc(OC)cc5N(C)C4C(O)(C(=O)OC)C1OC(=O)CCCN1CCN(C)CC1)C32 (centres unmarked) [Compound 3] | 90.6
CC[C@]12C=CCN3CC[C@@]4(c5ccc(OC)cc5N(C)[C@H]4[C@@](O)(C(=O)OC)[C@@H]1OC(=O)CCCN1CCN(C(=O)c4ccco4)CC1)[C@@H]32 [Compound 26] | 94.4

The compounds below were run on DU-145 (assay: NCI60 one-dose screen (10 μM), Prostate Cancer). Settings: Homo sapiens; 10 μM; DU-145, Prostate Cancer; read-out: Growth percent rate.
Type: cell-based

SMILES | activity at 10 µM [%]
CCC12C=CCN3CCC4(c5ccc(OC)cc5N(C)C4C(O)(C(=O)OC)C1OC(=O)CCC(=O)O)C32 (centres unmarked) [Compound 15, 17-(O-3-carboxypropanoyl)vindoline] | 98.1
CCC12C=CCN3CCC4(c5ccc(OC)cc5N(C)C4C(O)(C(=O)OC)C1OC(=O)CCCN1CCN(C)CC1)C32 (centres unmarked) [Compound 3] | 99.6
CC[C@]12C=CCN3CC[C@@]4(c5ccc(OC)cc5N(C)[C@H]4[C@@](O)(C(=O)OC)[C@@H]1OC(=O)CCCN1CCN(C(=O)c4ccco4)CC1)[C@@H]32 [Compound 26] | 105
